These are literature values, as cited in US20200246404A1, “FORMULATIONS” (Molecular Infusions, LLC, priority 2017, published 2020).

Data set [1] has as its system human PBMCs. To be noted: human PBMCs in vitro.
In data set [2] the test system is encephalitogenic T cells. As to conditions: encephalitogenic T cells after in vivo application to rats.

In the case of `CCOC(=O)C(C)=O` [Ethyl pyruvate], the “release of IFN-γ and IL-17” value in data set [1] and in data set [2] was “efficiently suppressed” each time.

With `CCCCCc1cc(O)c2c(c1)OC(C)(C)[C@@H]1CCC(C)=C[C@@H]21` [dronabinol, Synthetic Δ9-tetrahydrocannabinol], for the setting “in vivo”, the “duration of action for psychoactive effects” value was 4 to 6 h. In addition, the “administered dose that reaches the systemic circulation” value (oral) is on record as 10 to 20%.
